{
  "source": "the NIST ThermoML archive (doi:10.1016/j.tca.2014.08.003)",
  "settings": "Crystal, Calculated from knudsen effusion weight loss",
  "note": "± gives the expanded uncertainty stated by the source.",
  "data": [
    {"smiles": "[Cu][Br]", "note": "[copper(1+) bromide]", "values": [
      {"measurement": "vapor or sublimation pressure", "setting": "528.8 K", "value": "1.17e-05 ± 1.2e-06", "unit": "kPa"},
      {"measurement": "vapor or sublimation pressure", "setting": "530.1 K", "value": "9.37e-06 ± 1e-06", "unit": "kPa"},
      {"measurement": "vapor or sublimation pressure", "setting": "532 K", "value": "1.25e-05 ± 1.3e-06", "unit": "kPa"},
      {"measurement": "vapor or sublimation pressure", "setting": "551.4 K", "value": "2.45e-05 ± 2.7e-06", "unit": "kPa"},
      {"measurement": "vapor or sublimation pressure", "setting": "551.6 K", "value": "3.17e-05 ± 3.4e-06", "unit": "kPa"},
      {"measurement": "vapor or sublimation pressure", "setting": "553.5 K", "value": "4.55e-05 ± 4.8e-06", "unit": "kPa"},
      {"measurement": "vapor or sublimation pressure", "setting": "570.8 K", "value": "9.35e-05 ± 9.9e-06", "unit": "kPa"},
      {"measurement": "vapor or sublimation pressure", "setting": "572.6 K", "value": "0.000104 ± 1.1e-05", "unit": "kPa"},
      {"measurement": "vapor or sublimation pressure", "setting": "573.5 K", "value": "0.000113 ± 1.2e-05", "unit": "kPa"},
      {"measurement": "vapor or sublimation pressure", "setting": "592.1 K", "value": "0.000235 ± 2.5e-05", "unit": "kPa"},
      {"measurement": "vapor or sublimation pressure", "setting": "593.8 K", "value": "0.000273 ± 2.9e-05", "unit": "kPa"},
      {"measurement": "vapor or sublimation pressure", "setting": "594.6 K", "value": "0.000301 ± 3.2e-05", "unit": "kPa"},
      {"measurement": "vapor or sublimation pressure", "setting": "611.9 K", "value": "0.000512 ± 5.4e-05", "unit": "kPa"},
      {"measurement": "vapor or sublimation pressure", "setting": "614.9 K", "value": "0.000595 ± 6.3e-05", "unit": "kPa"},
      {"measurement": "vapor or sublimation pressure", "setting": "618.1 K", "value": "0.000705 ± 7.5e-05", "unit": "kPa"},
      {"measurement": "vapor or sublimation pressure", "setting": "633 K", "value": "0.00115 ± 0.00014", "unit": "kPa"},
      {"measurement": "vapor or sublimation pressure", "setting": "634.1 K", "value": "0.00121 ± 0.00015", "unit": "kPa"},
      {"measurement": "vapor or sublimation pressure", "setting": "635 K", "value": "0.00109 ± 0.00013", "unit": "kPa"},
      {"measurement": "vapor or sublimation pressure", "setting": "655.2 K", "value": "0.00229 ± 0.0003", "unit": "kPa"},
      {"measurement": "vapor or sublimation pressure", "setting": "656.8 K", "value": "0.00229 ± 0.0003", "unit": "kPa"},
      {"measurement": "vapor or sublimation pressure", "setting": "658.2 K", "value": "0.00269 ± 0.00035", "unit": "kPa"}
    ]},
    {"smiles": "[Br-].[Br-].[Zn+2]", "note": "[zinc bromide]", "values": [
      {"measurement": "vapor or sublimation pressure", "setting": "452.5 K", "value": "2.26e-05 ± 2.4e-06", "unit": "kPa"},
      {"measurement": "vapor or sublimation pressure", "setting": "452.8 K", "value": "2.04e-05 ± 2.2e-06", "unit": "kPa"},
      {"measurement": "vapor or sublimation pressure", "setting": "453.1 K", "value": "2.07e-05 ± 2.2e-06", "unit": "kPa"},
      {"measurement": "vapor or sublimation pressure", "setting": "453.6 K", "value": "1.28e-05 ± 1.4e-06", "unit": "kPa"},
      {"measurement": "vapor or sublimation pressure", "setting": "469.4 K", "value": "4.74e-05 ± 5e-06", "unit": "kPa"},
      {"measurement": "vapor or sublimation pressure", "setting": "472.1 K", "value": "9.63e-05 ± 1e-05", "unit": "kPa"},
      {"measurement": "vapor or sublimation pressure", "setting": "472.7 K", "value": "8.63e-05 ± 9.2e-06", "unit": "kPa"},
      {"measurement": "vapor or sublimation pressure", "setting": "473.8 K", "value": "7.35e-05 ± 7.8e-06", "unit": "kPa"},
      {"measurement": "vapor or sublimation pressure", "setting": "492.8 K", "value": "0.000262 ± 2.8e-05", "unit": "kPa"},
      {"measurement": "vapor or sublimation pressure", "setting": "493.1 K", "value": "0.000181 ± 1.9e-05", "unit": "kPa"},
      {"measurement": "vapor or sublimation pressure", "setting": "493.2 K", "value": "0.000217 ± 2.3e-05", "unit": "kPa"},
      {"measurement": "vapor or sublimation pressure", "setting": "493.9 K", "value": "0.000252 ± 2.7e-05", "unit": "kPa"},
      {"measurement": "vapor or sublimation pressure", "setting": "511.2 K", "value": "0.000691 ± 7.3e-05", "unit": "kPa"},
      {"measurement": "vapor or sublimation pressure", "setting": "511.3 K", "value": "0.000577 ± 6.1e-05", "unit": "kPa"},
      {"measurement": "vapor or sublimation pressure", "setting": "513 K", "value": "0.000684 ± 7.3e-05", "unit": "kPa"},
      {"measurement": "vapor or sublimation pressure", "setting": "513.1 K", "value": "0.000719 ± 7.6e-05", "unit": "kPa"},
      {"measurement": "vapor or sublimation pressure", "setting": "528.9 K", "value": "0.00158 ± 0.0002", "unit": "kPa"},
      {"measurement": "vapor or sublimation pressure", "setting": "530.2 K", "value": "0.00192 ± 0.00025", "unit": "kPa"},
      {"measurement": "vapor or sublimation pressure", "setting": "532.9 K", "value": "0.00201 ± 0.00026", "unit": "kPa"},
      {"measurement": "vapor or sublimation pressure", "setting": "533.9 K", "value": "0.0019 ± 0.00024", "unit": "kPa"},
      {"measurement": "vapor or sublimation pressure", "setting": "551.6 K", "value": "0.0051 ± 0.00071", "unit": "kPa"},
      {"measurement": "vapor or sublimation pressure", "setting": "552 K", "value": "0.00505 ± 0.0007", "unit": "kPa"},
      {"measurement": "vapor or sublimation pressure", "setting": "552.7 K", "value": "0.00453 ± 0.00062", "unit": "kPa"},
      {"measurement": "vapor or sublimation pressure", "setting": "552.8 K", "value": "0.00521 ± 0.00072", "unit": "kPa"},
      {"measurement": "vapor or sublimation pressure", "setting": "568 K", "value": "0.00978 ± 0.0014", "unit": "kPa"},
      {"measurement": "vapor or sublimation pressure", "setting": "570.3 K", "value": "0.0106 ± 0.0016", "unit": "kPa"},
      {"measurement": "vapor or sublimation pressure", "setting": "572.3 K", "value": "0.00997 ± 0.0014", "unit": "kPa"},
      {"measurement": "vapor or sublimation pressure", "setting": "574 K", "value": "0.0126 ± 0.0019", "unit": "kPa"}
    ]}
  ]
}
